According to PubChem BioAssay (NCI):
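48-hour exposure; five concentrations; linearly interpolated endpoints. Here, GI50 denotes the concentration required for 50% inhibition of growth. TGI: concentration producing complete growth inhibition.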

Columns and labels:
Assay in all cases: NCI anticancer screen, dose series, 48 h
UACC-257 melanoma = tested on: UACC-257 melanoma
NCI-H522 lung = tested on: NCI-H522 lung
OVCAR-3 ovarian = tested on: OVCAR-3 ovarian
A498 renal = tested on: A498 renal
IGROV1 ovarian = tested on: IGROV1 ovarian
SF-268 CNS = tested on: SF-268 CNS
A549 NSCLC = tested on: A549 NSCLC
NCI-H460 lung = tested on: NCI-H460 lung
LOX IMVI melanoma = tested on: LOX IMVI melanoma
MDA-MB-435 = tested on: MDA-MB-435

Row | SMILES | TGI (UACC-257 melanoma) [µM] | TGI (NCI-H522 lung) [µM] | TGI (OVCAR-3 ovarian) [µM] | TGI (A498 renal) [µM] | TGI (IGROV1 ovarian) [µM] | TGI (SF-268 CNS) [µM] | TGI (A549 NSCLC) [µM] | TGI (NCI-H460 lung) [µM] | TGI (LOX IMVI melanoma) [µM] | GI50 (UACC-257 melanoma) [µM] | GI50 (NCI-H522 lung) [µM] | GI50 (OVCAR-3 ovarian) [µM] | GI50 (A498 renal) [µM] | GI50 (SF-268 CNS) [µM] | GI50 (A549 NSCLC) [µM] | GI50 (NCI-H460 lung) [µM] | GI50 (LOX IMVI melanoma) [µM] | GI50 (MDA-MB-435) [µM] | TGI (MDA-MB-435) [µM] | GI50 (IGROV1 ovarian) [µM]
1 | CCCC(O)c1cn(-c2cccc(S(=O)(=O)O)c2)nn1 (stereo unspecified) | > 100 | > 100 | > 100 | > 100 | > 100 | > 100 | > 100 | > 100 | > 100 | – | – | – | – | – | – | – | – | – | – | –
2 | CN1CCN=C1c1nnn(-c2ccc([N+](=O)[O-])cc2)c1-c1ccccc1 | > 100 | > 100 | > 100 | > 100 | > 100 | > 100 | > 100 | > 100 | > 100 | – | – | – | – | – | – | – | – | – | – | –
3 | COc1cc(OC)c2c(=O)cc(-c3ccccc3OCc3ccccc3)oc2c1OC | 82.1 | > 100 | 16.5 | 69.9 | – | 73.7 | > 100 | > 100 | > 100 | 6.05 | 50.7 | 4.15 | 9.62 | 18.7 | 63.5 | 5.42 | 10.2 | 2.68 | 7.01 | –
4 | C=CC1C(CC2OC(CO)C(O)C(O)C2O)OC=C2C(=O)OCCC21O (stereo unspecified) | 50.9 | 34.5 | 27.6 | – | 53.1 | 89 | 48.9 | > 100 | 23.4 | 20.4 | 4.72 | 12.4 | – | 24.3 | 18.5 | 28.4 | 8.37 | 13.7 | 44.5 | 8.36
5 | CS(=O)(=O)c1ccc(COP(N)(=O)N(CCCl)CCCl)cc1 (stereo unspecified) | > 100 | > 100 | > 100 | > 100 | > 100 | > 100 | > 100 | > 100 | > 100 | – | – | – | – | – | – | – | – | – | – | –
6 | NC1=NC(SCc2ccccc2CCl)c2ncn(Cc3ccccc3CCl)c2N1 (stereo unspecified) | 3.07 | – | 2.99 | 25.3 | 3.57 | 10.2 | 5.01 | 6.69 | 2.92 | 1.54 | – | 1.32 | 8.51 | 2.01 | 2.04 | 2.53 | 1.35 | 1.53 | 3.28 | 1.52
7 | CC(C)=Cc1cc(C)c2ccc(C)c3c2c1C(C)=C(O)C3=O | > 100 | 46.4 | 49.2 | – | 71.6 | > 100 | > 100 | > 100 | > 100 | 39.5 | 19.8 | 15.6 | – | 0.0856 | 32 | 51.2 | 69.3 | 27.5 | 73.7 | 21
8 | CCCCNS(=O)(=O)c1ccc(-c2ccc3c(c2)-c2ccc(S(=O)(=O)NCCCC)cc2S3(=O)=O)cc1 | > 100 | 66.2 | 76.2 | 26.6 | > 100 | 31.3 | 57.3 | > 100 | 38 | – | – | – | – | – | – | – | – | – | – | –
9 | CCCCCCC(=O)C/C(CCC(=O)N(Cc1ccccc1)Cc1ccccc1)=N\NC(N)=O | > 100 | > 100 | > 100 | > 100 | > 100 | > 100 | > 100 | > 100 | > 100 | – | – | – | – | – | – | – | – | – | – | –
10 | COc1ccc2c(c1O)[C@@]13CCCC=C1[C@@H](C2)[N+](C)(C)CC3 | > 100 | > 100 | > 100 | – | > 100 | > 100 | > 100 | > 100 | > 100 | – | – | – | – | – | – | – | – | – | > 100 | –
11 | N#CC1=C(N)NC(N2CCOCC2)=NC12Nc1ccccc1O2 (stereo unspecified) | > 100 | 75 | 84.8 | – | 57.5 | > 100 | > 100 | > 100 | 81 | 49.7 | 23 | 25.1 | – | 33.8 | 70 | 46.1 | 23.7 | 23.5 | 70.2 | 9.47
12 | O=S(=O)(/N=S(/Nc1ccccc1)C(F)(F)Cl)c1ccccc1 (stereo unspecified) | > 100 | – | > 100 | > 100 | > 100 | > 100 | > 100 | > 100 | > 100 | – | – | – | – | – | – | – | – | – | > 100 | –
13 | CCC(C)(O)c1cn(-c2ccc(Cl)cc2)nn1 (stereo unspecified) | > 100 | > 100 | > 100 | > 100 | > 100 | > 100 | > 100 | > 100 | > 100 | – | – | – | – | – | – | – | – | – | – | –
14 | COc1cc2c(cc1OC)C(C(CBr)CBr)N(C1CCCC1)CC2 (stereo unspecified) | > 100 | > 100 | > 100 | > 100 | > 100 | > 100 | > 100 | > 100 | > 100 | – | – | – | – | – | – | – | – | – | – | –
15 | O=C1OC(=O)C23CSCC12C1C=CC3O1 (stereo unspecified) | > 100 | > 100 | > 100 | > 100 | > 100 | > 100 | > 100 | > 100 | > 100 | – | – | – | – | – | – | – | – | – | – | –
16 | CC1CCCC(C#N)(NOC2=NCCN2)C1 (stereo unspecified) | > 100 | > 100 | > 100 | – | > 100 | > 100 | > 100 | > 100 | 25.4 | 97.5 | 29 | 43 | – | 60.3 | 63.4 | 43.3 | 12.7 | 35.4 | > 100 | 30.4
17 | CC(C)(C)c1ccc(C2CC(=O)C3=C(C2)Nc2ccccc2N(C(=O)c2ccccc2Cl)C3c2ccc(F)cc2)cc1 (stereo unspecified) | > 100 | – | > 100 | > 100 | > 100 | > 100 | > 100 | > 100 | > 100 | > 100 | – | > 100 | 1.3 | > 100 | > 100 | > 100 | > 100 | > 100 | > 100 | > 100
